Reference: PMC12349723, “Computationally accelerated identification of P-glycoprotein inhibitors” (PLOS One, 2025)
“And” between values parts separate entries of the source, which are not always exact repeats. Equal values may be shown once. Read-outs that look alike come from different tables or passages of the source.

Legend:
[1] = test system: HFL1 (human lung fibroblast) cell line; assay: MTT viability assay, inherent toxicity in non-cancerous HFL1 cells; format: cell-based; design: Mean % Survival: tested at 15 µM; conditions: for Inherent toxicity to non-cancerous HFL1 cells: 15 µM compound, 48 h, MTT, 20% reduction in viability = maximum acceptable toxicity; for Mean % Survival / % Survival (individual sample): HFL1 cells, compound alone; for Mean % Survival: mean of 8 samples; for % Survival (individual sample): single samples (trials 1-2, samples 1-4)
Procedure: (§1) The chemotherapeutic sensitive DU145 human prostate cancer cells and the multidrug resistant sub-line, DU145-TXR, were generous gifts from Dr. Evan Keller (University of Michigan, Ann Arbor, MI). The MDR, P-gp overexpressing DU145-TXR cells were maintained under positive selection pressure by supplementing complete medium with 10 nM paclitaxel (Acros Organics, NJ). […] The MDR, P-gp overexpressing A2780-ADR cell line was maintained under positive selection pressure by supplementing complete medium with 100 nM doxorubicin (Fisher Scientific, NJ). The non-cancerous HFL1 (human lung fibroblast) cell line cell line was a generous gift from Dr. Robert Harrod (Southern Methodist University, Dallas, TX) and was maintained in complete F12K media consisting of F12K with 10% fetal bovine serum, 100 U/mL penicillin, and 100 µg/mL streptomycin (Gibco). Flasks and 96 well plates that were used with the non-cancerous line HFL1 were pre-treated with 0.1 mg/ml Collagen Type 1 (Gibco) and rinsed with PBS (Fisher).
(§2) MTT assays measure the reduction of yellow, water soluble 3-(4,5-dimethylthiazol-2-yl)-2,5-diphenyltetrazolium bromide (MTT) to blue, insoluble formazan crystals by cellular reductase processes in living cells. Cells were trypsinized from monolayers and seeded in complete medium in 96 well plates. Cancerous cell lines (DU145, DU145-TXR, A2780, A2780-ADR) were seeded at 3,000 cells per well in complete RPMI medium. The non-cancerous HFL1 line was seeded at 4,000 cells per well in complete F12K medium, in collagen-treated plates (Collagen Type 1, Gibco). Cells were incubated with experimental compounds for 48 hours at 37 °C and 5% CO2 in a humidified incubator. At 48 hours, MTT was added (20 µL/well of 5 mg/mL MTT in PBS) to each well. After incubation for 4 hours, the media was removed, and the formazan crystals were dissolved in 100 µL DMSO per well. Plates containing the semi-adherent A2780 or A2780-ADR lines were spun at 1400 rpm for 3 minutes prior to aspiration of media, and the addition of DMSO. Plates were shaken for 10 minutes at 500 rpm on an Orbital shaker (LabDoctor from MidSci, St Louis, MO). The absorbance was measured at 570 nm using a Bio-Tek Cytation 5 (Bio-Tek, Winooski, VT). The measured absorbance value was correlated with the number of metabolically active cells in that well, corrected for absorbance of media. The percent of cell viability (termed ‘survival’ here) was calculated as a percentage of survival of the control condition, which refers to vehicle-treated (DMSO as vehicle) cells, or vehicle-and-chemotherapeutic-treated cells, if testing a compound’s ability to re-sensitize cells to a chemotherapeutic. Percent survival was calculated using the following equation:
(§3) % Survival=100 × absorbance of experimental cells/mean absorbance of control treated cells
(§4) For DU145-TXR, DU145, HFL1 and A2780 cells – data are the mean ± one standard deviation, 8 samples per compound, from at least two independent trials per compound. […] For A2780-ADR cells, data are the mean ± one standard deviation with 12 samples per compound, from at least two independent trials per compound.
If a P-gp inhibitor is intrinsically toxic to non-cancerous cells, it is more likely to be participating in undesirable off-target interactions. The top compounds from the screens shown above were screened for inherent toxicity using the non-cancerous HFL1 (human lung fibroblast) cell line. HFL1 cells were incubated with 15 µM compound for 48 hours, after which cell viability was assessed using MTT cell viability assays. A 20% reduction in cell viability (compared to DMSO-treated cells) was considered the maximum acceptable toxicity (see dotted line). The chemotherapeutic daunorubicin was included as a positive control for toxicity.
The top compounds from previous screens were tested against the non-cancerous HFL1 cell line.

DU145 cells = assay: MTT viability assay, non-P-gp overexpressing DU145 parental line, with or without PTX; format: cell-based, human; conditions: for Sensitization of DU145 cells to PTX: 15 µM compound + PTX vs PTX alone; for viability at 15 µM: Homo sapiens, DU-145, 48 h
Procedure: as §1
Culture of the DU145, DU145-TXR, and HFL1 cell lines was performed as described in [8]. Culture of the A2780 and A2780-ADR cell lines was performed as described in [9]. MTT assays were performed as described in [8] with minor modifications. […] Data represent the mean of two separate experiments, with n = 3 samples per experiment (n = 6 total) (S4 Table).
as §2, §3, §4
67 compounds were chosen from computational screens for testing in vitro. A) DU145-TXR cells were exposed to 15 µM experimental compound with or without 500 nM of the P-gp substrate and chemotherapeutic paclitaxel (PTX).

[2] = Resazurin cell viability pre-screen in DU145-TXR cells with or without PTX; format: cell-based; conditions: human, mean of two experiments in triplicate, read-out: Viability, 15 µM compound alone
Procedure: Culture of the DU145, DU145-TXR, and HFL1 cell lines was performed as described in [8]. Culture of the A2780 and A2780-ADR cell lines was performed as described in [9]. MTT assays were performed as described in [8] with minor modifications. LC-MS/MS accumulation assays were performed as described in {Nanayakkara, 2018 #173} [9] with some modifications. […] The inhibitor concentration was lowered to 15 µM here, as the goal of the study was to identify compounds that were effective in reversing MDR at low concentrations, and to determine if the expanded virtual-assisted methods improved on our first-draft attempt. Compounds 56–98 were pre-screened using Resazurin cell viability assays: cells were incubated with 15 µM compound with or without 500 nM PTX for 48 hours, after which cell survival was assessed similar to [39]. Data represent the mean of two separate experiments, with n = 3 samples per experiment (n = 6 total) (S4 Table). The top performing compounds from this initial screen were re-tested with MTT viability assays against DU145-TXR cells, as described below.
S4 Table. Pre-screening of compounds 56 – 98 against DU145-TXR cells with resazurin assays. DU145-TXR cells were incubated with 15 µM compound with or without 500nM PTX for 48 hrs; survival was subsequently determined with the Resazurin viability assay ^[37]. […] Percent re-sensitization is defined as the percent change in viability between cells treated with compound and PTX, versus cells treated with PTX alone. In some instances, the assay reported an increase in viability with compound + PTX, and no percent sensitization is reported. ‘Follow-up Testing’ compounds were re-assessed with MTT assays (Figure 1). Compounds 59 and 89 (*, ‘Follow-up Testing’) were used as negative controls in follow-up MTT assays to test for consistency of results, e.g. to confirm that molecules eliminated in Resazurin assays were justifiably eliminated from later screening with MTT assays.

[3] = DU145 cells, 48 h, mean of 8 samples
[4] = DU145 cells, 48 h, single samples, 2 trials x 4 samples
[5] = DU145 cells, 48 h, mean of 8 samples, read-out: % Survival, Mean, 15 µM Compound alone
[6] = DU145 cells, 48 h, single samples, 2 trials x 4 samples, read-out: % Survival, 15 µM Compound alone (individual samples)

SMILES	Inherent toxicity to non-cancerous HFL1 cells [1]	Mean % Survival [1]	% Survival (individual sample) [1]	Sensitization of DU145 cells to PTX (DU145 cells)	% Survival, Mean, 15 µM compound + 500 nM PTX (DU145 cells; [3])	% Survival, 15 µM Compound alone (individual samples) (DU145 cells; [4])	viability at 15 µM (DU145 cells; [5])	viability at 15 µM (DU145 cells; [6])	% Survival, 15 µM compound + 500 nM PTX (individual samples) (DU145 cells; [4])	% Survival, Mean, 15 µM Compound alone (DU145 cells; [3])	viability at 48 h, 15 µM [2]
COc1cccc(N2CCN(c3ccc4nnc(CCC(=O)Nc5ccc(F)c(F)c5)n4n3)CC2)c1 [Compound 101, COc1cccc(c1)N1CCN(CC1)c1ccc2nnc(CCC(=O)Nc3ccc(F)c(F)c3)n2n1]	either ‘non-toxic’ or ‘within acceptable limits’ of toxicity	100.9%	103%	insignificantly sensitize DU145 cells to PTX	24.0%	89%	89.9%	92%			
Cc1ccc(-c2noc(-c3cn(Cc4ccc(NS(=O)(=O)c5ccccc5F)cc4)cn3)n2)cc1 [Compound 103, Cc1ccc(cc1)-c1noc(n1)-c1cn(Cc2ccc(NS(=O)(=O)c3ccccc3F)cc2)cn1]	either ‘non-toxic’ or ‘within acceptable limits’ of toxicity	93.4%		insignificantly sensitize DU145 cells to PTX	29.4%		77.7%				
Cc1onc(-c2ccccc2)c1-c1nnc(Cn2cnc3ccccc3c2=O)o1 [Compound 111, Cc1onc(c1-c1nnc(Cn2cnc3ccccc3c2=O)o1)-c1ccccc1]	either ‘non-toxic’ or ‘within acceptable limits’ of toxicity	96.0%	92%	insignificantly sensitize DU145 cells to PTX	19.3%	72%	73.5%	80%			
O=C(NCc1cccc(F)c1)c1nnn2c1Sc1c(C(=O)NCc3cccc(F)c3)nnn1CC2 [Compound 122, Fc1cccc(CNC(=O)c2nnn3CCn4nnc(C(=O)NCc5cccc(F)c5)c4Sc23)c1]	either ‘non-toxic’ or ‘within acceptable limits’ of toxicity	79.7%		insignificantly sensitize DU145 cells to PTX	19.4%		60.9%				
O=C(c1nc(-c2ccccn2)no1)N1CCN(c2nsc3ccccc23)CC1 [Compound 124, O=C(N1CCN(CC1)c1nsc2ccccc12)c1nc(no1)-c1ccccn1]	either ‘non-toxic’ or ‘within acceptable limits’ of toxicity	84.6%	89%	insignificantly sensitize DU145 cells to PTX	20.9%	85%	76.9%		17% and 26%		
COc1ccc2c3c([nH]c2c1)[C@H](CC(C)C)N1C(=O)[C@H](CCC(=O)OC(C)(C)C)NC(=O)[C@@H]1C3 [Ko143, reference compound]					20.1%	89% and 88% and 53% and 50% and 46% and 42% and 86% and 91%			12% and 13% and 16% and 22% and 23% and 24% and 25%	68.1%	
COc1cc2c(cc1OC)CN(CCc1ccc(NC(=O)c3cc(OC)c(OC)cc3NC(=O)c3cnc4ccccc4c3)cc1)CC2 [Tariquidar, reference compound]					12.0%		86.1%				75.2%
